Test results from PMC10878397, “Development of Potent Dual BET/HDAC Inhibitors via Pharmacophore Merging and Structure-Guided Optimization” (ACS Chemical Biology, 2024).
Where two headings read alike, the source gives them in different places.

How the values were obtained:
Type in all cases: binding
[1] = target: T1, ATAD2A (Homo sapiens, UniProt Q6PL18); test: DSF bromodomain selectivity panel; settings: 10 μM compound
T1 construct: purchased in-house (SGC Frankfurt recombinant bromodomain DSF panel)
Experimental: (§1) The effects of inhibitor binding on the apparent melting temperature of recombinant bromodomains were determined by DSF in a 96-well plate (Starlab) at a protein concentration of 2 μM with 10 μΜ compound in buffer containing 25 mM HEPES, pH 7.5, 150 mM NaCl, and 0.5 mM TCEP. […] Protein unfolding profiles were recorded using an MX3005P real-time qPCR instrument (Agilent; excitation/emission filters = 492/610 nm) while increasing the temperature from 25 to 95 °C at a heating rate of 3 °C/min. Tm values were calculated after fitting the fluorescence curves to the Boltzmann equation. Differences in melting temperature upon compound binding are given as ΔTm = Tm (protein with inhibitor) – Tm (protein with DMSO control). Measurements were performed in triplicates.

[2] = target: T2, BAZ2B (Homo sapiens, UniProt Q9UIF8); test: DSF bromodomain selectivity panel; settings: 10 μM compound
T2 construct: purchased in-house (SGC Frankfurt recombinant bromodomain DSF panel)
Experimental: as §1

[3] = target: T3, BRD1 (Homo sapiens, UniProt O95696); test: DSF bromodomain selectivity panel; settings: 10 μM compound
T3 construct: purchased in-house (SGC Frankfurt recombinant bromodomain DSF panel)
Experimental: as §1

[4] = target: T4, BRD2 (1) (Homo sapiens, UniProt P25440); test: DSF bromodomain selectivity panel; settings: 10 μM compound
T4 construct: BRD2 (1); purchased in-house (SGC Frankfurt recombinant bromodomain DSF panel)
Experimental: as §1

[5] = target: T5, BRD2 (2) (Homo sapiens, UniProt P25440); test: DSF bromodomain selectivity panel; settings: 10 μM compound
T5 construct: BRD2 (2); purchased in-house (SGC Frankfurt recombinant bromodomain DSF panel)
Experimental: as §1

[6] = target: T6, BRD3 (1) (Homo sapiens, UniProt Q15059); test: DSF bromodomain selectivity panel; settings: 10 μM compound
T6 construct: BRD3 (1); purchased in-house (SGC Frankfurt recombinant bromodomain DSF panel)
Experimental: as §1

[7] = target: T7, BRD3 (2) (Homo sapiens, UniProt Q15059); test: DSF bromodomain selectivity panel; settings: 10 μM compound
T7 construct: BRD3 (2); purchased in-house (SGC Frankfurt recombinant bromodomain DSF panel)
Experimental: as §1

[8] = target: T8, BRD7 (Homo sapiens, UniProt Q9NPI1); test: DSF bromodomain selectivity panel; settings: 10 μM compound
T8 construct: purchased in-house (SGC Frankfurt recombinant bromodomain DSF panel)
Experimental: as §1

[9] = target: T9, BRD9 (Homo sapiens, UniProt Q9H8M2); test: DSF bromodomain selectivity panel; settings: 10 μM compound
T9 construct: purchased in-house (SGC Frankfurt recombinant bromodomain DSF panel)
Experimental: as §1

[10] = target: T10, BRDT(1) (Homo sapiens, UniProt Q58F21); test: DSF bromodomain selectivity panel; settings: 10 μM compound
T10 construct: BRDT(1); purchased in-house (SGC Frankfurt recombinant bromodomain DSF panel)
Experimental: as §1

[11] = target: T11, BRPF1B (Homo sapiens, UniProt P55201); test: DSF bromodomain selectivity panel; settings: 10 μM compound
T11 construct: purchased in-house (SGC Frankfurt recombinant bromodomain DSF panel)
Experimental: as §1

[12] = target: T12, BRPF3 (Homo sapiens, UniProt Q9ULD4); test: DSF bromodomain selectivity panel; settings: 10 μM compound
T12 construct: purchased in-house (SGC Frankfurt recombinant bromodomain DSF panel)
Experimental: as §1

[13] = target: T13, CREBBPA (Homo sapiens, UniProt Q92793); test: DSF bromodomain selectivity panel; settings: 10 μM compound
T13 construct: purchased in-house (SGC Frankfurt recombinant bromodomain DSF panel)
Experimental: as §1

[14] = target: T14, EP300A (Homo sapiens, UniProt Q09472); test: DSF bromodomain selectivity panel; settings: 10 μM compound
T14 construct: purchased in-house (SGC Frankfurt recombinant bromodomain DSF panel)
Experimental: as §1

[15] = target: T15, PB1A(3) (Homo sapiens, UniProt Q86U86); test: DSF bromodomain selectivity panel; settings: 10 μM compound
T15 construct: PB1A(3); purchased in-house (SGC Frankfurt recombinant bromodomain DSF panel)
Experimental: as §1

[16] = target: T16, PB1A(4) (Homo sapiens, UniProt Q86U86); test: DSF bromodomain selectivity panel; settings: 10 μM compound
T16 construct: PB1A(4); purchased in-house (SGC Frankfurt recombinant bromodomain DSF panel)
Experimental: as §1

[17] = target: T17, PB1A(5) (Homo sapiens, UniProt Q86U86); test: DSF bromodomain selectivity panel; settings: 10 μM compound
T17 construct: PB1A(5); purchased in-house (SGC Frankfurt recombinant bromodomain DSF panel)
Experimental: as §1

[18] = target: T18, PB1A(6) (Homo sapiens, UniProt Q86U86); test: DSF bromodomain selectivity panel; settings: 10 μM compound
T18 construct: PB1A(6); purchased in-house (SGC Frankfurt recombinant bromodomain DSF panel)
Experimental: as §1

[19] = target: T19, PCAFA (Homo sapiens, UniProt Q92831); test: DSF bromodomain selectivity panel; settings: 10 μM compound
T19 construct: purchased in-house (SGC Frankfurt recombinant bromodomain DSF panel)
Experimental: as §1

[20] = target: T20, SMARCA2A (Homo sapiens, UniProt P51531); test: DSF bromodomain selectivity panel; settings: 10 μM compound
T20 construct: purchased in-house (SGC Frankfurt recombinant bromodomain DSF panel)
Experimental: as §1

[21] = test system: SP100; test: DSF bromodomain selectivity panel; settings: 10 μM compound
Experimental: as §1

[22] = target: T21, TAF1 (1) (Homo sapiens, UniProt P21675); test: DSF bromodomain selectivity panel; settings: 10 μM compound
T21 construct: TAF1 (1); purchased in-house (SGC Frankfurt recombinant bromodomain DSF panel)
Experimental: as §1

[23] = target: T22, TAF1 (2) (Homo sapiens, UniProt P21675); test: DSF bromodomain selectivity panel; settings: 10 μM compound
T22 construct: TAF1 (2); purchased in-house (SGC Frankfurt recombinant bromodomain DSF panel)
Experimental: as §1

[24] = target: T23, TAF1LA (1) (Homo sapiens, UniProt Q8IZX4); test: DSF bromodomain selectivity panel; settings: 10 μM compound
T23 construct: TAF1LA (1); purchased in-house (SGC Frankfurt recombinant bromodomain DSF panel)
Experimental: as §1

[25] = target: T24, TAF1LA (2) (Homo sapiens, UniProt Q8IZX4); test: DSF bromodomain selectivity panel; settings: 10 μM compound
T24 construct: TAF1LA (2); purchased in-house (SGC Frankfurt recombinant bromodomain DSF panel)
Experimental: as §1

[26] = target: T25, TRIM24 (Homo sapiens, UniProt O15164); test: DSF bromodomain selectivity panel; settings: 10 μM compound, construct containing tandem PHD-BD
T25 construct: purchased in-house (SGC Frankfurt recombinant bromodomain DSF panel)
Experimental: as §1

[27] = target: T26, TRIM33B (Homo sapiens, UniProt Q9UPN9); test: DSF bromodomain selectivity panel; settings: 10 μM compound, construct containing tandem PHD-BD
T26 construct: purchased in-house (SGC Frankfurt recombinant bromodomain DSF panel)
Experimental: as §1

[28] = target: T27, WDR9A(1) (Homo sapiens, UniProt Q9NSI6); test: DSF bromodomain selectivity panel; settings: 10 μM compound
T27 construct: WDR9A(1); purchased in-house (SGC Frankfurt recombinant bromodomain DSF panel)
Experimental: as §1

[29] = target: BRD4 BD1 (Homo sapiens, UniProt O60885); test: DSF thermal shift assay; set-up: purchased in-house (SGC Frankfurt recombinant bromodomain DSF panel); settings: for Mean Tm BRD4 (1), bromodomain panel: selectivity panel, technical triplicates
Experimental: as §1

[30] = target: BRD4 BD2 (Homo sapiens, UniProt O60885); test: DSF thermal shift assay; set-up: purchased in-house (SGC Frankfurt recombinant bromodomain DSF panel); settings: for Mean Tm BRD4 (2), bromodomain panel: selectivity panel, technical triplicates
Experimental: as §1

T23 sequence (Q8IZX4 1392-1522 limits assumed): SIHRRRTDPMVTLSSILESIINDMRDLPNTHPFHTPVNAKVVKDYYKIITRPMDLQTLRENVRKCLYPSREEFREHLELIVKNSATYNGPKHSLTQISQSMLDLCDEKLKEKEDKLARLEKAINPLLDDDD
T15 sequence (Q86U86 388-494 limits assumed): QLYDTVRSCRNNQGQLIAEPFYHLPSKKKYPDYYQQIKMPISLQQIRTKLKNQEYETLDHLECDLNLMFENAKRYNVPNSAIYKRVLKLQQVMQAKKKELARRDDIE
T3 sequence (O95696 whole entry): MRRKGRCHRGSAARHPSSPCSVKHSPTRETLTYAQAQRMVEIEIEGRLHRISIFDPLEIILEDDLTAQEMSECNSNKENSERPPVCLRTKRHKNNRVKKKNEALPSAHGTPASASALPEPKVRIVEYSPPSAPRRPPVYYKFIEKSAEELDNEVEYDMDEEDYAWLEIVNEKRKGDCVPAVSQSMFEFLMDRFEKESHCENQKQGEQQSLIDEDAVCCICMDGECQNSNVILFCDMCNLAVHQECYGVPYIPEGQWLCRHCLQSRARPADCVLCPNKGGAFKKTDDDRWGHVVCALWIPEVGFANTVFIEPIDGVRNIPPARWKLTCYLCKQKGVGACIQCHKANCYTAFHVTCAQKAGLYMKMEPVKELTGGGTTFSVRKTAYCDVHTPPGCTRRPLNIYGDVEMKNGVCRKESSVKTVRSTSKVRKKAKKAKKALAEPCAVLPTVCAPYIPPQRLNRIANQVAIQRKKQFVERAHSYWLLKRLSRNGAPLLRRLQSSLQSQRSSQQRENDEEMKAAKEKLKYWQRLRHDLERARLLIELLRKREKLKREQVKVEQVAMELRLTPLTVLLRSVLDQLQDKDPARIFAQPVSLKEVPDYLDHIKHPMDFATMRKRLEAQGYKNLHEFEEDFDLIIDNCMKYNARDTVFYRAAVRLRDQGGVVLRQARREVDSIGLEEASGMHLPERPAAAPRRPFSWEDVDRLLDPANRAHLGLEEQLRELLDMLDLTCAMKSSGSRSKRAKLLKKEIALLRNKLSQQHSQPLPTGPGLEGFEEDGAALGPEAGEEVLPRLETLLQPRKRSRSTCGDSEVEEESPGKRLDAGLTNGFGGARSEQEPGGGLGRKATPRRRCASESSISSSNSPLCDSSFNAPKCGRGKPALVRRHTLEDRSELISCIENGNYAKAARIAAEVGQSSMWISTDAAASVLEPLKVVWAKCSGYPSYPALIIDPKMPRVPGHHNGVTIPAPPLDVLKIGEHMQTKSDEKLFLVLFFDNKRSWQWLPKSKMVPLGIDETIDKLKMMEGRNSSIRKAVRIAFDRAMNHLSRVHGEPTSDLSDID
T8 sequence (Q9NPI1 whole entry): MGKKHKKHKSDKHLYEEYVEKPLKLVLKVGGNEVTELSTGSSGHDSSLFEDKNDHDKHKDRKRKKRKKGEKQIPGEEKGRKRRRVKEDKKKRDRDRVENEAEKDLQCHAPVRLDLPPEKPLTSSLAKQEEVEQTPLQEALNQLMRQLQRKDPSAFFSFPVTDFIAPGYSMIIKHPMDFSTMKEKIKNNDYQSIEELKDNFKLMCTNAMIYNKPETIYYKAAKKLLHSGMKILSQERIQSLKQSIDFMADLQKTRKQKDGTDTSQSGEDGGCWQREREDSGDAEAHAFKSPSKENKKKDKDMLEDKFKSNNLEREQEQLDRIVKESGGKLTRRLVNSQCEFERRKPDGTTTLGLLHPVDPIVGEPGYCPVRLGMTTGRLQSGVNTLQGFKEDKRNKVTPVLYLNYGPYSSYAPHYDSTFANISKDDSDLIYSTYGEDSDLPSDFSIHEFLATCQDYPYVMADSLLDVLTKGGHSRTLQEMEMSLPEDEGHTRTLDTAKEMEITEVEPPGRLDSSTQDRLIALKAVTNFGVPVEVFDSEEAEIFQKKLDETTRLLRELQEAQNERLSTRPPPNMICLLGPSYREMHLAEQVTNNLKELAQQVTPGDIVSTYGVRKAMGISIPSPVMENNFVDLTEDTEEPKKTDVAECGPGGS
T18 sequence (Q86U86 773-914 limits assumed): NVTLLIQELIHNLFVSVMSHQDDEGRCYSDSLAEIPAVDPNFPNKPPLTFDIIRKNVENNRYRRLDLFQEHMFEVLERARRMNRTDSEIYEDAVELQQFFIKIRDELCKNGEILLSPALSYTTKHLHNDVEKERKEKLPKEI
T25 sequence (O15164 whole entry): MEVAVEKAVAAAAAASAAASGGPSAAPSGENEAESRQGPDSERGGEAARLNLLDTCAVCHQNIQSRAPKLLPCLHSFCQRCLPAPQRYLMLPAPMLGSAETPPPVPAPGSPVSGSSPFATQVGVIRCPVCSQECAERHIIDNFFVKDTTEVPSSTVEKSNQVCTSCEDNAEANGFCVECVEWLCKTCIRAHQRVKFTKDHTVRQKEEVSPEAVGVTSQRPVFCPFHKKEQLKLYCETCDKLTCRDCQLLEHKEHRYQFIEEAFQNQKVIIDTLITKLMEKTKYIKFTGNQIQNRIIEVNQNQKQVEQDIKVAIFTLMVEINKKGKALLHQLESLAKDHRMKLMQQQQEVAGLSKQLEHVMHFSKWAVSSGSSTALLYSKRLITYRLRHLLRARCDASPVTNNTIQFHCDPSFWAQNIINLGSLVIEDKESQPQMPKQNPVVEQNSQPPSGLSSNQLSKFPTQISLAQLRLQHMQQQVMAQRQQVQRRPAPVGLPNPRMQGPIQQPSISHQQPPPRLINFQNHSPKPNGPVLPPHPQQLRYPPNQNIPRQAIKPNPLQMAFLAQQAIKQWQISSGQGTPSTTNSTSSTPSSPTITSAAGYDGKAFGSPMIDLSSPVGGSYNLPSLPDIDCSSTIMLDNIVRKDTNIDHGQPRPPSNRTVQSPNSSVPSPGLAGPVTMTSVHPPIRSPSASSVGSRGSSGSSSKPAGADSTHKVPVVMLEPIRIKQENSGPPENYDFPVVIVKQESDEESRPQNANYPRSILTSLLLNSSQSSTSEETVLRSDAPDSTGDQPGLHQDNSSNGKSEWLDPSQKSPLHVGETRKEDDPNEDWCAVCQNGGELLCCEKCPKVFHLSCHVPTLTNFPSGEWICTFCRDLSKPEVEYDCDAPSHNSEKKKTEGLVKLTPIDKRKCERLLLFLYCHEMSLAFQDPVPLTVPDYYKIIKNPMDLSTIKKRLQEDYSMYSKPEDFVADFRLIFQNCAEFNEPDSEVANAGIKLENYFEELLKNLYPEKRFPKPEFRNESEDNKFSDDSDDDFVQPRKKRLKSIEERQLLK
T11 sequence (P55201 whole entry): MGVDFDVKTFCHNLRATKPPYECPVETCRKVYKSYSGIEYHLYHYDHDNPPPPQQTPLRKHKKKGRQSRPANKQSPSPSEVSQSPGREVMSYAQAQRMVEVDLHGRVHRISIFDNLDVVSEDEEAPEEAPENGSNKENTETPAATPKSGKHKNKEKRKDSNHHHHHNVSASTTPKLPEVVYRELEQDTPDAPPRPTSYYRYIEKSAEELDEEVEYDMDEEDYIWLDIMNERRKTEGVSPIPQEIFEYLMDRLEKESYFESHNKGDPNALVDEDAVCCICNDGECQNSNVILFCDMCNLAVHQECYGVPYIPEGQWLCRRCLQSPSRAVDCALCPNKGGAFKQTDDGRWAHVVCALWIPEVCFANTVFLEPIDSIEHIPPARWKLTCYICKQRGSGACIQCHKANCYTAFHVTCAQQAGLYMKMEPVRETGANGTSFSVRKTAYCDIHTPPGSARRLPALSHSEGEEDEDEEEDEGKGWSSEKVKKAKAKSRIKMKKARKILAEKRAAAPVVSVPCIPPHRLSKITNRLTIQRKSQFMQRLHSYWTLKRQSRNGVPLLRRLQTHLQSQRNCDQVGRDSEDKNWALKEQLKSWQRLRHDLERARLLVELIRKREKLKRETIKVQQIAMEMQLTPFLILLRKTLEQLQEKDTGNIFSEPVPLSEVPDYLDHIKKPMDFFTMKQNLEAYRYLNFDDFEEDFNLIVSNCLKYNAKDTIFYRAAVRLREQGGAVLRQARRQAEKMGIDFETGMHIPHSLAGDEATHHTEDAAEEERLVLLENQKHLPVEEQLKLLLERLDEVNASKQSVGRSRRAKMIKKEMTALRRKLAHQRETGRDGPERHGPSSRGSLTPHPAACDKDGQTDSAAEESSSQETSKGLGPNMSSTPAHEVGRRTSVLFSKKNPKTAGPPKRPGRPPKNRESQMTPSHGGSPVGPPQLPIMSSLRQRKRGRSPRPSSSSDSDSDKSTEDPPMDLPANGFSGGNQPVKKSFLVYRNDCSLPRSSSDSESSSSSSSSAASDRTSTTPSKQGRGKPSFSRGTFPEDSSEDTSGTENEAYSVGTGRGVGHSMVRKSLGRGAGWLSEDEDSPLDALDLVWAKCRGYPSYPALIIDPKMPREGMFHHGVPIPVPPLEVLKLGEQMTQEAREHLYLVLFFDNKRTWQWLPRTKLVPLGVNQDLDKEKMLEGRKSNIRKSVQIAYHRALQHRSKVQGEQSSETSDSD
T9 sequence (Q9H8M2 whole entry): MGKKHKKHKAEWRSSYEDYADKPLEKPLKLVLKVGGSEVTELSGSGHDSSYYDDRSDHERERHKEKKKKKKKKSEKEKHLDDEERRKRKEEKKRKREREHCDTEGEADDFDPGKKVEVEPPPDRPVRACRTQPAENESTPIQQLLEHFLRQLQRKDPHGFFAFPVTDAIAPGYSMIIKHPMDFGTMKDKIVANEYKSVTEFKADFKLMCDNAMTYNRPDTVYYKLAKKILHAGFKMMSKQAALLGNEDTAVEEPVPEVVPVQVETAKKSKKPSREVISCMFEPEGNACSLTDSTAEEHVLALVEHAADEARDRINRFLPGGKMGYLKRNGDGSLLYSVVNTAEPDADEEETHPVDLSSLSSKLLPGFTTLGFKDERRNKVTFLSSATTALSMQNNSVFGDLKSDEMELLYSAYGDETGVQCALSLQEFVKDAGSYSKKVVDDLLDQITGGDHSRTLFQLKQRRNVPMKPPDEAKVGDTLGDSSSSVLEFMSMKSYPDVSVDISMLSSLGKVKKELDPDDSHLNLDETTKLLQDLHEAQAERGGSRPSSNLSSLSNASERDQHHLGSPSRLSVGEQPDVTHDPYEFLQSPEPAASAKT

SMILES | Mean Tm ATAD2A [1] [K] | Mean Tm BAZ2B [2] [K] | Mean Tm BRD1 [3] [K] | Mean Tm BRD2 (1) [4] [K] | Mean Tm BRD2 (2) [5] [K] | Mean Tm BRD3 (1) [6] [K] | Mean Tm BRD3 (2) [7] [K] | Mean Tm BRD7 [8] [K] | Mean Tm BRD9 [9] [K] | Mean Tm BRDT(1) [10] [K] | Mean Tm BRPF1B [11] [K] | Mean Tm BRPF3 [12] [K] | Mean Tm CREBBPA [13] [K] | Mean Tm EP300A [14] [K] | Mean Tm PB1A(3) [15] [K] | Mean Tm PB1A(4) [16] [K] | Mean Tm PB1A(5) [17] [K] | Mean Tm PB1A(6) [18] [K] | Mean Tm PCAFA [19] [K] | Mean Tm SMARCA2A [20] [K] | other results
Cn1cc(-c2ccc(C(=O)Nc3ccccc3N)cc2)c2cc[nH]c2c1=O [NB462] | 0.4 ± 0.2 | 0.5 ± 0.0 | 0.2 ± 0.1 | 3.1 ± 0.5 | 5.3 ± 0.1 | 3.8 ± 0.3 | 6.1 ± 0.0 | 5.6 ± 0.3 | 5.2 ± 1.2 | 3.0 ± 0.2 | 0.8 ± 0.1 | -0.5 ± 0.1 | 1.8 ± 0.3 | 2.0 ± 0.3 | 0.5 ± 0.2 | 0.1 ± 0.1 | 0.0 ± 0.1 | 0.3 ± 0.1 | 0.1 ± 0.4 | -0.1 ± 0.1 | Mean Tm SP100 [21]: -0.2 ± 0.1 K; Mean Tm TAF1 (1) [22]: 0.4 ± 0.1 K; Mean Tm TAF1 (2) [23]: 1.3 ± 0.0 K; Mean Tm TAF1LA (1) [24]: 0.3 ± 0.1 K; Mean Tm TAF1LA (2) [25]: 1.7 ± 0.1 K; Mean Tm TRIM24 [26]: 0.6 ± 0.1 K; Mean Tm TRIM33B [27]: 0.4 ± 0.1 K; Mean Tm WDR9A(1) [28]: -0.3 ± 0.2 K; DSF ΔTm BRD4 BD1 ([29]; 10 μM compound, 2 μM protein): 3.9 ± 0.4 K; ΔTm at 10 µM ([29]; read-out: DSF ΔTm BRD4 BD1, 10 μM compound, 2 μM protein): 4 to 5 °C; Mean Tm BRD4 (1), bromodomain panel ([29]; 10 μM compound): 3.6 ± 0.1 K; DSF ΔTm BRD4 BD2 ([30]; 10 μM compound, 2 μM protein): 4.5 ± 0.1 K; ΔTm at 10 µM ([30]; read-out: DSF ΔTm BRD4 BD2, 10 μM compound, 2 μM protein): 4 to 5 °C; Mean Tm BRD4 (2), bromodomain panel ([30]; 10 μM compound): 4.6 ± 0.1 K
Cn1cc(-c2ccc(C(=O)Nc3ccccc3N)nc2)c2cc[nH]c2c1=O [NB500] |  |  |  |  |  |  |  |  |  |  |  |  |  |  |  |  |  |  |  |  | ΔTm at 10 µM ([29]; 10 μM compound, 2 μM protein, read-out: DSF ΔTm BRD4 BD1): 4.2 ± 0.4 °C; ΔTm at 10 µM ([30]; 10 μM compound, 2 μM protein, read-out: DSF ΔTm BRD4 BD2): 4.7 ± 0.4 °C
Cn1cc(-c2ccc(C(=O)Nc3cc(-c4ccccc4)ccc3N)cc2)c2cc[nH]c2c1=O [NB503] | -1.3 ± 0.1 | 1.4 ± 0.1 | 1.1 ± 0.1 | 3.2 ± 0.5 | 3.6 ± 0.4 | 3.8 ± 0.4 | 4.6 ± 0.7 | 1.1 ± 0.2 | 1.0 ± 0.8 | 3.3 ± 0.1 | 0.8 ± 0.3 | 1.2 ± 0.1 | 1.4 ± 0.3 | 1.0 ± 0.3 | 0.0 ± 0.0 | 1.0 ± 0.6 | 1.1 ± 0.2 | 1.3 ± 0.1 | 1.9 ± 0.2 | 1.2 ± 0.5 | Mean Tm SP100 [21]: 0.4 ± 0.1 K; Mean Tm TAF1 (1) [22]: 1.0 ± 0.2 K; Mean Tm TAF1 (2) [23]: 1.7 ± 0.1 K; Mean Tm TAF1LA (1) [24]: 0.6 ± 0.3 K; Mean Tm TAF1LA (2) [25]: 1.2 ± 0.0 K; Mean Tm TRIM24 [26]: 0.7 ± 0.5 K; Mean Tm TRIM33B [27]: 0.5 ± 0.0 K; Mean Tm WDR9A(1) [28]: 0.0 ± 0.0 K; Mean Tm BRD4 (1), bromodomain panel ([29]; 10 μM compound): 5.5 ± 0.1 K; Mean Tm BRD4 (2), bromodomain panel ([30]; 10 μM compound): 5.3 ± 0.2 K
